Measured values: patent US11208404B2 (PERENNA PHARMACEUTICALS, INC., priority 2017, dated 2021)
pIC50: −log10 of the molar value. Where “and” joins values, the source holds several entries; their conditions need not be identical. Equal entries are not always repeated.

Molecular target: ALCAT1 (Homo sapiens (Human), UniProt Q6UWP7)
Test: In vitro acyltransferase assay for ALCAT1 inhibitors
Type: biochemical
Conditions: for inhibition at 1 µM / % inh @ 1 μM: 1 μM compound; for inhibition at 1 µM / inhibition at 10 µM / % inh @ 1 μM / % inh @ 10 μM: in vitro enzymatic assay; for inhibition at 10 µM / % inh @ 10 μM: 10 μM compound; for pIC50: ALCAT1 enzyme activity, triplicates, GraphPad, read-out: IC50
Source text: The human ALCAT1 protein were expressed in Spodoptera frugiperda (Sf9) insect cells by using a Bac-to-Bac baculovirus expression system (Invitrogen) according to the manufacturer's instruction. High-titer recombinant baculovirus expressing the human ALCAT1 protein was generated by several rounds of viral amplification. The Sf9 cells were typically infected with recombinant baculovirus for 3 days, harvested in ice-cold phosphate-buffered saline (PBS), and homogenized in 20 mm NaCl by going through French press. The total cell lysates were centrifuged at 10,000×g for 1 hours at 4° C. to eliminate the nucleus fraction, followed by ultracentrifugation at 100,000×g to pallet the membrane fraction. The membrane fraction was resuspended in enzymatic buffer that contain 10% glycerol, quantified for protein concentration, aliquoted, and stored at −80° C.
ALCAT1 enzymatic activity was determined by measuring the conversion of monolysocardiolipin (MLCL) to cardiolipin or lysophosphatidylglycerol (LPG) to phosphatidylglycerol (PG) in an enzymatic reaction mixture that contained 50 mm Tris/HCl, pH 7.0, 100 μm lysophospholipids, 25 μm [^14C]acyl-CoA (50 mCi/mmol, American Radiolabeled Chemicals, Inc), and membrane fraction (0.5-2.5 μg) in a total volume of 200 μl. The reaction was incubated at room temperature for 30 min. The lipids were extracted will chloroform, dried, and separated by thin layer chromatography (TLC) with chloroform:hexane:methanol:acetic acid (50:30:10:5, v/v) or chloroform:methanol:water (65:25:4, v/v). After separation, TLC plates were exposed to a Phosphorlmager screen to visualize the radiolabeled products with a Molecular Dynamics Typhoon Scanner (Sunnyvale, Calif.). In some experiments, NBD-CoA was used at 100 μM to replace the [^14C]acyl-CoA in the enzymatic reaction. All quantitative data were expressed as mean±S.E. Statistical analyses for differences between two groups were carried out using a Student's t test.
Compound inhibitors for ALCAT1 enzyme were analyzed by an in vitro enzymatic assay as detailed above. Compound inhibitors were added to the enzymatic mixture at 1-20 μM concentrations before the start of the acyltransferase reaction.
Where multiple measurements were taken this is indicated by a “/” between multiple values.
IC50 values for each compound were analyzed in triplicates, and calculated by GraphPad software.

ALCAT1, sequence (Q6UWP7 whole entry): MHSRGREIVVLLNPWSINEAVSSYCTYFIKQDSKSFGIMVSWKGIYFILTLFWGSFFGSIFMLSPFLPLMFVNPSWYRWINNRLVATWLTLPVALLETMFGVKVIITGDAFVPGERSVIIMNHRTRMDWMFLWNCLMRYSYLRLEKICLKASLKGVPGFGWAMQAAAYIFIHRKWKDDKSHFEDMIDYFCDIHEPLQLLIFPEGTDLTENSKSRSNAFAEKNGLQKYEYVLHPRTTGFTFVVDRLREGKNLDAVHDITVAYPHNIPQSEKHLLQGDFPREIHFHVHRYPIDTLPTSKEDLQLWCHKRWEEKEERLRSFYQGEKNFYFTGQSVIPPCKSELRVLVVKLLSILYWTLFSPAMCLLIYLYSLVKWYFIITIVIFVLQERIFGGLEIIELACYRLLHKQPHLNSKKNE

Structure (SMILES): O=C(Nc1cccc(-c2nnc(-c3ccco3)o2)c1)c1cccc(F)c1F [Compound 196]
- inhibition at 1 µM: 68%
- inhibition at 10 µM: 97%
- pIC50: 6.47

Structure (SMILES): COC(=O)c1ccc(OC)c(C(=O)Nc2cccc(-c3nnc(-c4ccco4)o3)c2)c1 [Compound 115]
- inhibition at 1 µM: 51%
- inhibition at 10 µM: 53%

Structure (SMILES): O=C(Nc1cccc(-c2nnc(-c3ccco3)o2)c1)c1ccccc1I [Compound 83]
- inhibition at 1 µM: 36%
- inhibition at 10 µM: 43%

Structure (SMILES): O=C(Nc1cccc(-c2nnc(-c3ccco3)o2)c1)c1cc(F)ccc1F [Compound 195]
- inhibition at 1 µM: 70%
- inhibition at 10 µM: 88%
- pIC50: 6.44

Structure (SMILES): COc1ccc(F)c(C(=O)Nc2cccc(-c3nnc(-c4ccco4)o3)c2)c1 [Compound 214]
- % inh @ 1 μM: 76%
- inhibition at 1 µM: 67%

Structure (SMILES): O=C(Nc1cccc(-c2nnc(-c3ncco3)o2)c1)c1ccccc1F [Compound 236]
- % inh @ 1 μM: 8%
- inhibition at 1 µM: 7%

Structure (SMILES): CS(=O)(=O)c1ccccc1C(=O)Nc1cccc(-c2nnc(-c3ccco3)o2)c1 [Compound 248]
- % inh @ 1 μM: 50%
- inhibition at 1 µM: 30%

Structure (SMILES): N#Cc1ccccc1C(=O)Nc1cccc(-c2nnc(-c3ccco3)o2)c1 [Compound 56]
- inhibition at 10 µM: 2%

Structure (SMILES): O=C(Nc1cccc(-c2nnc(-c3ccco3)o2)c1)c1cccc2ccoc12 [Compound 227]
- % inh @ 1 μM: 89%
- inhibition at 1 µM: 85%
- pIC50: 6.80

Structure (SMILES): O=C(Nc1cccc(-c2nnc(-c3ccco3)o2)c1)c1cccc([N+](=O)[O-])c1 [Compound 87]
- inhibition at 1 µM: 29%
- inhibition at 10 µM: 62%

Structure (SMILES): COc1ccc(Cl)cc1C(=O)Nc1cc(-c2nnc(-c3cnco3)o2)ccc1F [Compound 364]
- pIC50: 6.92

Structure (SMILES): O=C(Nc1cccc(-c2nnc(-c3ccco3)o2)c1)c1ccc(Br)cc1F [Compound 73]
- inhibition at 1 µM: 15%
- inhibition at 10 µM: 66%

Structure (SMILES): O=C(Nc1cccc(-c2nnc(-c3ccco3)o2)c1)c1cccc(O)c1 [Compound 62]
- inhibition at 1 µM: 2%
- inhibition at 10 µM: 11%

Structure (SMILES): O=C(Nc1cccc(-c2nnc(-c3ccc[nH]3)o2)c1)c1ccccc1F [Compound 16]
- % inh @ 1 μM: 58% and 85%

Structure (SMILES): COc1ccc(C(=O)O)cc1C(=O)Nc1cccc(-c2nnc(-c3ccco3)o2)c1 [Compound 114]
- inhibition at 1 µM: 36%
- inhibition at 10 µM: 48%

Structure (SMILES): COc1ccc(OC)c(C(=O)Nc2cccc(-c3nnc(-c4ccco4)o3)c2)c1 [Compound 171]
- inhibition at 1 µM: 79%
- inhibition at 10 µM: 100%
- pIC50: 6.46

Structure (SMILES): O=C(Nc1cccc(-c2nnc(-c3ccco3)o2)c1)c1ccccc1O [Compound 64]
- inhibition at 1 µM: 15%
- inhibition at 10 µM: 55%

Structure (SMILES): O=C(Nc1cccc(-c2nnc(-c3ccco3)o2)c1)c1ccc(I)cc1 [Compound 84]
- inhibition at 1 µM: 5%

Structure (SMILES): CCCOc1ccc(Br)cc1C(=O)Nc1cccc(-c2nnc(-c3ccco3)o2)c1 [Compound 119, 5-Bromo-N-(3-(5-(furan-2-yl)-1,3,4-oxadiazol-2-yl)phenyl)-2-propoxybenzamide]
- inhibition at 1 µM: 92%
- inhibition at 10 µM: 95%
- pIC50: 7.05

Structure (SMILES): COc1ccc(Cl)cc1NC(=O)c1cccc(-c2nnc(-c3ccco3)o2)c1 [Compound 230]
- % inh @ 1 μM: 89%
- inhibition at 1 µM: 94%
- pIC50: 6.39

Structure (SMILES): COc1ccc(Cl)cc1C(=O)Nc1cccc(-c2nnc(-c3ccco3)o2)c1 [Compound 124, 5-Chloro-N-(3-(5-(furan-2-yl)-1,3,4-oxadiazol-2-yl)phenyl)-2-methoxybenzamide]
- inhibition at 1 µM: 92%
- inhibition at 10 µM: 100%
- pIC50: 7.21

Structure (SMILES): COc1cccc(OC)c1C(=O)Nc1cccc(-c2nnc(-c3ccco3)o2)c1 [Compound 170]
- inhibition at 1 µM: 20%
- inhibition at 10 µM: 27%

Structure (SMILES): O=C(Nc1cccc(-c2nnc(-c3ccco3)o2)c1)c1ccccc1F [Compound 1]
- % inh @ 1 μM: 63%
- inhibition at 1 µM: 59%
- % inh @ 10 μM: 48% and 49% and 79%
- pIC50: 6.68

Structure (SMILES): COc1cccc(C(=O)Nc2cccc(-c3nnc(-c4ccco4)o3)c2)c1OC [Compound 169]
- inhibition at 1 µM: 74%
- inhibition at 10 µM: 93%
- pIC50: 6.33

Structure (SMILES): O=C(Nc1cccc(-c2nnc(-c3ccco3)o2)c1)c1cccc2c1OCCC2 [Compound 296]
- % inh @ 1 μM: 73%
- inhibition at 1 µM: 55%

Structure (SMILES): Cc1cc(NC(=O)c2ccccc2F)cc(-c2nnc(-c3ccco3)o2)c1 [Compound 132]
- % inh @ 1 μM: 39%
- inhibition at 1 µM: 26%

Structure (SMILES): CCCOc1ccccc1C(=O)Nc1cccc(-c2nnc(-c3ccco3)o2)c1 [Compound 175]
- inhibition at 1 µM: 90%
- inhibition at 10 µM: 100%
- pIC50: 6.82

Structure (SMILES): O=C(Nc1cc(-c2nnc(-c3ccco3)o2)ccc1F)c1ccccc1OC(F)(F)F [Compound 301, N-(2-Fluoro-5-(5-(furan-2-yl)-1,3,4-oxadiazol-2-yl)phenyl)-2-(trifluoromethoxy)benzamide]
- pIC50: 7.00

Structure (SMILES): O=C(Nc1cccc(-c2nnc(-c3ccco3)o2)c1)c1cc(F)ccc1OCC(F)(F)F [Compound 228, 5-Fluoro-N-(3-(5-(furan-2-yl)-1,3,4-oxadiazol-2-yl)phenyl)-2-(2,2,2-trifluoroethoxy)benzamide]
- % inh @ 1 μM: 99%
- inhibition at 1 µM: 100%
- pIC50: 7.14

Structure (SMILES): O=C(Nc1ccc(-c2nnc(-c3ccco3)o2)cc1)c1ccccc1F [Compound 35, 2-fluoro-N-(4-(5-(furan-2-yl)-1,3,4-oxadiazol-2-yl)phenyl)benzamide]
- inhibition at 1 µM: 16%
- inhibition at 10 µM: 5%

Structure (SMILES): COc1ccc(I)cc1C(=O)Nc1cccc(-c2nnc(-c3ccco3)o2)c1 [Compound 113]
- inhibition at 1 µM: 96%
- inhibition at 10 µM: 94%
- pIC50: 6.96

Structure (SMILES): O=C(Nc1cccc(-c2nnc(-c3ccco3)o2)c1)c1cccc2c1OCO2 [Compound 178]
- inhibition at 1 µM: 27%

Structure (SMILES): O=C(Nc1cccc(-c2nnc(-c3ccco3)o2)c1)c1ccc2c(c1)OCO2 [Compound 177]
- inhibition at 1 µM: 3%
- inhibition at 10 µM: 1%

Structure (SMILES): COc1c(Cl)cccc1C(=O)Nc1cccc(-c2nnc(-c3ccco3)o2)c1 [Compound 193, 3-Chloro-N-(3-(5-(furan-2-yl)-1,3,4-oxadiazol-2-yl)phenyl)-2-methoxybenzamide]
- inhibition at 1 µM: 92%
- inhibition at 10 µM: 90%
- pIC50: 7.17

Structure (SMILES): O=C(Nc1cccc(-c2nnc(-c3ccco3)o2)c1)c1cccc(Cl)c1Cl [Compound 150]
- inhibition at 1 µM: 72%
- inhibition at 10 µM: 92%
- pIC50: 6.39

Structure (SMILES): Cc1ccc(OCC(F)(F)F)c(C(=O)Nc2cccc(-c3nnc(-c4ccco4)o3)c2)c1 [Compound 224]
- % inh @ 1 μM: 97%
- inhibition at 1 µM: 91%
- pIC50: 6.72

Structure (SMILES): O=C(Nc1cccc(-c2nnc(-c3ccco3)o2)c1)c1cc(OC(F)(F)F)ccc1F [Compound 211, 2-Fluoro-N-(3-(5-(furan-2-yl)-1,3,4-oxadiazol-2-yl)phenyl)-5-(trifluoromethoxy)benzamide]
- % inh @ 1 μM: 97%
- inhibition at 1 µM: 95%
- pIC50: 7.02

Structure (SMILES): O=C(Nc1cccc(-c2nnc(-c3ccco3)o2)c1)c1cccc([N+](=O)[O-])c1F [Compound 340]
- inhibition at 1 µM: 72%

Structure (SMILES): Nc1ccccc1C(=O)Nc1cccc(-c2nnc(-c3ccco3)o2)c1 [Compound 77]
- inhibition at 1 µM: 37%
- inhibition at 10 µM: 21%

Structure (SMILES): Cc1ccc(NC(=O)c2ccccc2F)cc1-c1nnc(-c2ccco2)o1 [Compound 81]
- % inh @ 1 μM: 36%
- inhibition at 1 µM: 20%

Structure (SMILES): O=C(Nc1cccc(-c2nnc(-c3ccco3)o2)c1)c1cc(Cl)ccc1OCC(F)F [Compound 286]
- pIC50: 6.92

Structure (SMILES): O=C(Nc1cc(-c2nnc(-c3ccco3)o2)ccc1Cl)c1ccccc1F [Compound 23]
- inhibition at 10 µM: 89%
- pIC50: 5.74

Structure (SMILES): O=C(Nc1cccc(-c2nnc(-c3ccco3)o2)c1)c1cccc(Cl)c1 [Compound 59]
- pIC50: 5.70

Structure (SMILES): O=C(Nc1cccc(-c2nnc(-c3ccco3)o2)c1Cl)c1ccccc1F [Compound 297]
- % inh @ 1 μM: 83%
- inhibition at 1 µM: 75%
- pIC50: 6.54

Structure (SMILES): COc1ccc(F)cc1C(=O)Nc1cccc(-c2nnc(-c3ccco3)o2)c1 [Compound 127]
- inhibition at 1 µM: 85%
- inhibition at 10 µM: 100%
- pIC50: 6.68

Structure (SMILES): O=C(Nc1cccc(-c2nnc(-c3ccco3)o2)c1)c1ccc(-c2ccccc2)cc1F [Compound 74]
- inhibition at 1 µM: 4%
- inhibition at 10 µM: 21%

Structure (SMILES): O=C(Nc1cccc(-c2nnc(-c3ccco3)o2)c1)c1cncc([N+](=O)[O-])c1 [Compound 345]
- inhibition at 1 µM: 24%

Structure (SMILES): O=C(Nc1cccc(-c2nnc(-c3ccco3)o2)c1)c1ccc(-c2ccccc2)cc1 [Compound 48]
- % inh @ 10 μM: 2%

Structure (SMILES): Cc1ccc(F)c(C(=O)Nc2cccc(-c3nnc(-c4ccco4)o3)c2)c1 [Compound 176]
- inhibition at 1 µM: 73%
- inhibition at 10 µM: 100%
- pIC50: 6.66
